Measured values reported in the NIST ThermoML archive (doi:10.1021/je900387e).
± gives the expanded uncertainty stated by the source.

Assay: xn = mol fraction of the nth substance listed
Settings: Liquid, Pycnometric method

Cn1ccnc1 [1-methylimidazole] + O=C=O
Settings	mass density [kg/m3]
313.1 K, 11200 kPa, x1 = 0.0247	802 ± 4
313.1 K, 11280 kPa, x1 = 0.0487	852 ± 4
313.1 K, 11440 kPa, x1 = 0.0487	855 ± 4
313.1 K, 11540 kPa, x1 = 0.0102	771 ± 4
313.1 K, 11540 kPa, x1 = 0.1024	928 ± 4
313.1 K, 11580 kPa, x1 = 0.0247	811 ± 4
313.1 K, 11620 kPa, x1 = 0.0487	858 ± 4
313.1 K, 11740 kPa, x1 = 0.1024	930 ± 4
313.1 K, 11790 kPa, x1 = 0.0487	860 ± 4
313.1 K, 11980 kPa, x1 = 0.0487	862 ± 4
313.1 K, 11990 kPa, x1 = 0.1024	933 ± 4
313.1 K, 12000 kPa, x1 = 0.0247	819 ± 4
313.1 K, 12070 kPa, x1 = 0.0102	786 ± 4
313.1 K, 12180 kPa, x1 = 0.0487	865 ± 4
313.1 K, 12320 kPa, x1 = 0.1024	936 ± 4
313.1 K, 12490 kPa, x1 = 0.0247	828 ± 4
313.1 K, 12620 kPa, x1 = 0.1024	939 ± 4
313.1 K, 12700 kPa, x1 = 0.0102	800 ± 4
313.1 K, 12970 kPa, x1 = 0.1024	942 ± 4
313.1 K, 13010 kPa, x1 = 0.0247	837 ± 4
313.1 K, 13280 kPa, x1 = 0.1024	944 ± 4
313.1 K, 13460 kPa, x1 = 0.0102	816 ± 4
313.1 K, 13600 kPa, x1 = 0.0247	846 ± 4
313.1 K, 13660 kPa, x1 = 0.1024	947 ± 4
313.1 K, 14020 kPa, x1 = 0.1024	950 ± 4
313.1 K, 14280 kPa, x1 = 0.0247	855 ± 4
313.1 K, 14340 kPa, x1 = 0.0102	832 ± 4
313.1 K, 14430 kPa, x1 = 0.1024	954 ± 4
313.1 K, 14780 kPa, x1 = 0.1024	956 ± 4
313.1 K, 14970 kPa, x1 = 0.0247	865 ± 4
313.1 K, 15010 kPa, x1 = 0.0102	842 ± 4
313.1 K, 15210 kPa, x1 = 0.1024	959 ± 4
313.1 K, 15360 kPa, x1 = 0.0247	870 ± 4
313.1 K, 15650 kPa, x1 = 0.1024	963 ± 4
313.1 K, 15790 kPa, x1 = 0.0247	875 ± 4
313.1 K, 16150 kPa, x1 = 0.1024	966 ± 4
313.1 K, 16220 kPa, x1 = 0.0247	880 ± 4
313.1 K, 16560 kPa, x1 = 0.1024	969 ± 4
313.1 K, 16690 kPa, x1 = 0.0247	885 ± 4
313.1 K, 17100 kPa, x1 = 0.1024	972 ± 4
313.1 K, 17540 kPa, x1 = 0.1024	975 ± 4
313.1 K, 18150 kPa, x1 = 0.1024	979 ± 4
313.1 K, 18570 kPa, x1 = 0.1024	981 ± 4
313.1 K, 18940 kPa, x1 = 0.1024	983 ± 4
317.9 K, 9730 kPa, x1 = 0.0102	555 ± 4
317.9 K, 9780 kPa, x1 = 0.0102	563 ± 4
317.9 K, 9850 kPa, x1 = 0.0102	573 ± 4
317.9 K, 9910 kPa, x1 = 0.0102	583 ± 4
317.9 K, 9990 kPa, x1 = 0.0102	594 ± 4
317.9 K, 10080 kPa, x1 = 0.0102	606 ± 4
317.9 K, 10180 kPa, x1 = 0.0102	618 ± 4
317.9 K, 10180 kPa, x1 = 0.0247	708 ± 4
317.9 K, 10300 kPa, x1 = 0.0102	630 ± 4
317.9 K, 10340 kPa, x1 = 0.0247	716 ± 4
317.9 K, 10440 kPa, x1 = 0.0102	643 ± 4
317.9 K, 10490 kPa, x1 = 0.0247	723 ± 4
317.9 K, 10620 kPa, x1 = 0.0102	656 ± 4
317.9 K, 10640 kPa, x1 = 0.0247	730 ± 4
317.9 K, 10810 kPa, x1 = 0.0102	670 ± 4
317.9 K, 10810 kPa, x1 = 0.0247	737 ± 4
317.9 K, 11000 kPa, x1 = 0.0247	744 ± 4
317.9 K, 11050 kPa, x1 = 0.0102	684 ± 4
317.9 K, 11220 kPa, x1 = 0.0247	751 ± 4
317.9 K, 11330 kPa, x1 = 0.0102	699 ± 4
317.9 K, 11460 kPa, x1 = 0.0247	758 ± 4
317.9 K, 11510 kPa, x1 = 0.0487	815 ± 4
317.9 K, 11590 kPa, x1 = 0.0487	817 ± 4
317.9 K, 11680 kPa, x1 = 0.0102	715 ± 4
317.9 K, 11700 kPa, x1 = 0.0487	820 ± 4
317.9 K, 11710 kPa, x1 = 0.0247	766 ± 4
317.9 K, 11820 kPa, x1 = 0.0487	822 ± 4
317.9 K, 11960 kPa, x1 = 0.0247	774 ± 4
317.9 K, 11970 kPa, x1 = 0.0487	825 ± 4
317.9 K, 12080 kPa, x1 = 0.0487	827 ± 4
317.9 K, 12100 kPa, x1 = 0.0102	731 ± 4
317.9 K, 12210 kPa, x1 = 0.0487	830 ± 4
317.9 K, 12290 kPa, x1 = 0.0247	781 ± 4
317.9 K, 12350 kPa, x1 = 0.0487	833 ± 4
317.9 K, 12480 kPa, x1 = 0.0487	836 ± 4
317.9 K, 12640 kPa, x1 = 0.0102	749 ± 4
317.9 K, 12640 kPa, x1 = 0.0487	838 ± 4
317.9 K, 12820 kPa, x1 = 0.0247	793 ± 4
317.9 K, 12930 kPa, x1 = 0.0487	843 ± 4
317.9 K, 13150 kPa, x1 = 0.1024	919 ± 4
317.9 K, 13260 kPa, x1 = 0.0102	766 ± 4
317.9 K, 13300 kPa, x1 = 0.0487	849 ± 4
317.9 K, 13400 kPa, x1 = 0.1024	922 ± 4
317.9 K, 13440 kPa, x1 = 0.0247	806 ± 4
317.9 K, 13660 kPa, x1 = 0.0487	854 ± 4
317.9 K, 13720 kPa, x1 = 0.1024	925 ± 4
317.9 K, 13980 kPa, x1 = 0.1024	927 ± 4
317.9 K, 14030 kPa, x1 = 0.0487	860 ± 4
317.9 K, 14060 kPa, x1 = 0.0102	785 ± 4
317.9 K, 14140 kPa, x1 = 0.0247	819 ± 4
317.9 K, 14310 kPa, x1 = 0.1024	930 ± 4
317.9 K, 14450 kPa, x1 = 0.0487	866 ± 4
317.9 K, 14560 kPa, x1 = 0.1024	933 ± 4
317.9 K, 14670 kPa, x1 = 0.0247	828 ± 4
317.9 K, 14710 kPa, x1 = 0.1024	934 ± 4
317.9 K, 14880 kPa, x1 = 0.1024	936 ± 4
317.9 K, 15050 kPa, x1 = 0.0102	806 ± 4
317.9 K, 15130 kPa, x1 = 0.1024	938 ± 4
317.9 K, 15280 kPa, x1 = 0.0247	837 ± 4
317.9 K, 15330 kPa, x1 = 0.1024	939 ± 4
317.9 K, 15480 kPa, x1 = 0.1024	941 ± 4
317.9 K, 15570 kPa, x1 = 0.0247	841 ± 4
317.9 K, 15630 kPa, x1 = 0.1024	942 ± 4
317.9 K, 15890 kPa, x1 = 0.0102	821 ± 4
317.9 K, 15920 kPa, x1 = 0.0247	846 ± 4
317.9 K, 15950 kPa, x1 = 0.1024	944 ± 4
317.9 K, 16260 kPa, x1 = 0.0247	851 ± 4
317.9 K, 16380 kPa, x1 = 0.1024	947 ± 4
317.9 K, 16620 kPa, x1 = 0.0247	855 ± 4
317.9 K, 16800 kPa, x1 = 0.1024	950 ± 4
317.9 K, 16910 kPa, x1 = 0.0102	837 ± 4
317.9 K, 17010 kPa, x1 = 0.0247	860 ± 4
317.9 K, 17180 kPa, x1 = 0.1024	953 ± 4
317.9 K, 17600 kPa, x1 = 0.1024	956 ± 4
317.9 K, 18050 kPa, x1 = 0.1024	959 ± 4
317.9 K, 18370 kPa, x1 = 0.1024	962 ± 4
317.9 K, 18750 kPa, x1 = 0.1024	964 ± 4
317.9 K, 18990 kPa, x1 = 0.1024	965 ± 4
322.7 K, 10720 kPa, x1 = 0.0102	558 ± 4
322.7 K, 10820 kPa, x1 = 0.0102	568 ± 4
322.7 K, 10930 kPa, x1 = 0.0102	578 ± 4
322.7 K, 11040 kPa, x1 = 0.0102	589 ± 4
322.7 K, 11140 kPa, x1 = 0.0102	600 ± 4
322.7 K, 11270 kPa, x1 = 0.0102	612 ± 4
322.7 K, 11430 kPa, x1 = 0.0102	624 ± 4
322.7 K, 11460 kPa, x1 = 0.0247	701 ± 4
322.7 K, 11570 kPa, x1 = 0.0247	706 ± 4
322.7 K, 11610 kPa, x1 = 0.0102	636 ± 4
322.7 K, 11730 kPa, x1 = 0.0247	712 ± 4
322.7 K, 11810 kPa, x1 = 0.0102	649 ± 4
322.7 K, 11910 kPa, x1 = 0.0247	719 ± 4
322.7 K, 12030 kPa, x1 = 0.0102	663 ± 4
322.7 K, 12090 kPa, x1 = 0.0247	726 ± 4
322.7 K, 12300 kPa, x1 = 0.0102	677 ± 4
322.7 K, 12300 kPa, x1 = 0.0247	733 ± 4
322.7 K, 12520 kPa, x1 = 0.0247	740 ± 4
322.7 K, 12640 kPa, x1 = 0.0102	692 ± 4
322.7 K, 12750 kPa, x1 = 0.0247	747 ± 4
